Assay results reported in patent US20250108048A1, “STING AGONIST COMPOUNDS AND CONJUGATES” (SUTRO BIOPHARMA, INC., priority 2023, published 2025).
pKd: −log10 of the molar value.

Tests used:
[1] = molecular target: T1, hSTING-R232 (Homo sapiens, UniProt Q86WV6, H232R); assay: THP1-Dual KI-hSTING-R232 reporter assay (IRF pathway, secreted Lucia luciferase); type: cell-based; conditions: THP1-Dual KI-hSTING-R232 cells, 24 hours; read-out: Reporter assay EC50 (nM) THP-1-R232
T1 construct: host or cells: THP1-Dual KI-hSTING-R232 (from THP1-Dual KO-STING)
T1 sequence (Q86WV6 whole entry H232R): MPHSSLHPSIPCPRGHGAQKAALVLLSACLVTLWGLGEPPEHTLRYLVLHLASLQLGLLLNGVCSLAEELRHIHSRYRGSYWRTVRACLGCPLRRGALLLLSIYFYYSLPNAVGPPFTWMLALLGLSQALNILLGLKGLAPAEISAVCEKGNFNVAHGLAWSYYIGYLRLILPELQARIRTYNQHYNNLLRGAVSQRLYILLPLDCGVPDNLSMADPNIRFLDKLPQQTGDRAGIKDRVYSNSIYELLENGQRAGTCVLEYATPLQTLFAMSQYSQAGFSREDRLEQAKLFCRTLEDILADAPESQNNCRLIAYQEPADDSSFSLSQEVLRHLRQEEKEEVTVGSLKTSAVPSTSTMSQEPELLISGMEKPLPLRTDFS
Procedure: (§1) The activities of the STING agonists to activate human or mouse STING pathways were evaluated in THP-1-Dual™, THP1-Dual™ KI-hSTING-R232, THP1-Dual™ KI-hSTING-H232 Cells and THP1-Dual™ KI-mSTING Cells. THP-1-Dual™ cells contains hSTING-HAQ haplotype and can be used to evaluate the activity of STING agonists by monitoring the activation of NF-κB pathway and the […] (IFN regulatory factor) pathways. THP1-Dual™ KO-STING cells were generated from THP1-Dual™ cells by stable knockout of the endogenous HAQ STING gene. THP1-Dual™ KI-hSTING-R232 cells, THP1-Dual™ KI-hSTING-H232 cells and THP1-Dual™ KI-mSTING cells were generated by transfecting THP1-Dual™ KO-STING cells with hSTING-R232 or hSTING-H232 or mSTING. Stimulating these reporter cells with a STING agonist activates TRF pathway and induces the production of a secreted Lucia luciferase in the cell culture medium, which can be determined using QUANTI-Luc™ reagent.
(§2) THP-1-Dual™, THP1-Dual™ KI-hSTING-R232, THP1-Dual™ KI-hSTING-H232 and THP1-Dual™ KI-mSTING reporter cells were purchased from Invivogen and maintained in manufacture recommended culture medium with required supplemental antibiotics. On the day of assay, the cells were harvested with Accutase and counted by the Vi-CELL Cell Viability Analyzers. Cells were resuspended in HEK blue detection medium and a total of 10000 cells were seeded in each well of a 384-well flat bottom plate. […] After incubation at 37° C. in a CO2 incubator for 24 hours, 20 μl of cell culture medium per well was transferred into a 384-well white (opaque) plate. 50 μl of QUANTI-Luc™ assay solution was then added to each well and the plate was immediately transferred to an ENVISION® plate reader to measure luminescence (Perkin-Elmer). Relative luminescence readings were converted to fold change of signal using untreated cells as controls. Data was fitted with non-linear regression analysis, using log (agonist) vs. response, variable slope, 4-parameter fit equation using GraphPad Prism. Data was expressed as fold change in signal vs. dose of STING agonist in nM with error bars indicating the Standard Deviation (SD) of the quadruplicates. There result was reported in Table 2 as EC50 (the midpoint of the curve, or concentration at which […] of the maximum effect was observed).

[2] = molecular target: T2, hSTING-HAQ haplotype (Homo sapiens, UniProt Q86WV6, G230A/H232R/R293Q/R71H); assay: THP-1-Dual reporter assay (endogenous hSTING-HAQ); type: cell-based; conditions: THP-1-Dual cells (hSTING-HAQ), 24 hours
T2 construct: host or cells: THP-1-Dual
T2 sequence (Q86WV6 whole entry R71H/G230A/H232R/R293Q): as the sequence (Q86WV6 whole entry H232R) above, with R71H, G230A, R293Q counted along it
Procedure: as §1, §2

[3] = molecular target: hSTING WT (Homo sapiens, UniProt Q86WV6); assay: Surface plasmon resonance, hSTING WT; type: binding; conditions: read-out: hSTING WT SPR (Kd)
hSTING WT, sequence (Q86WV6 whole entry H232R): as the sequence (Q86WV6 whole entry H232R) above

[4] = molecular target: T3, hSTING H232 (Homo sapiens, UniProt Q86WV6); assay: Surface plasmon resonance, hSTING H232; type: binding; conditions: read-out: hSTING H232 SPR (Kd)
T3 sequence (Q86WV6 whole entry): as the sequence (Q86WV6 whole entry H232R) above, with R232H counted along it

[5] = molecular target: hSTING AQ (Homo sapiens, UniProt Q86WV6, G230A/H232R/R293Q); assay: Surface plasmon resonance, hSTING AQ; type: binding; conditions: read-out: hSTING AQ SPR (Kd)
hSTING AQ, sequence (Q86WV6 whole entry G230A/H232R/R293Q): as the sequence (Q86WV6 whole entry H232R) above, with G230A, R293Q counted along it

[6] = molecular target: T4, mSTING (Mus musculus, UniProt Q3TBT3); assay: THP1-Dual KI-mSTING reporter assay; type: cell-based; design: host or cells: THP1-Dual KI-mSTING (from THP1-Dual KO-STING); conditions: THP1-Dual KI-mSTING cells, 24 hours; read-out: Reporter assay EC50 (nM) THP-1 mSTING
T4 sequence (Q3TBT3 1-378): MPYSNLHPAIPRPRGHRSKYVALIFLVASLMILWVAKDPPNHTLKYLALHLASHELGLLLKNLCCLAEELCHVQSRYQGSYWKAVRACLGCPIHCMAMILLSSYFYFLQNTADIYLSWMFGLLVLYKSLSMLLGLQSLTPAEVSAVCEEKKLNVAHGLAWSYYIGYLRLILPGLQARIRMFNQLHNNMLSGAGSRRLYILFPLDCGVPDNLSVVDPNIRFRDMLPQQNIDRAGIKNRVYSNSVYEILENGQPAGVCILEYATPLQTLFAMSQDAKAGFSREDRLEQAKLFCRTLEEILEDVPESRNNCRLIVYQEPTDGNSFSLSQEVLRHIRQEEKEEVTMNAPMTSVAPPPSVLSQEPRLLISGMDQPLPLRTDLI
Procedure: as §1
THP-1-Dual™, THP1-Dual™ KI-hSTING-R232, THP1-Dual™ KI-hSTING-H232 and THP1-Dual™ KI-mSTING reporter cells were purchased from Invivogen and maintained in manufacture recommended culture medium with required supplemental antibiotics. On the day of assay, the cells were harvested with Accutase and counted by the Vi-CELL Cell Viability Analyzers. Cells were resuspended in HEK blue detection medium and a total of 10000 cells were seeded in each well of a 384-well flat bottom plate. Serial dilutions of STING agonists free drugs (1:3 serial dilution starting from 5 uM) was added into treatment wells. After incubation at 37° C. in a CO2 incubator for 24 hours, 20 μl of cell culture medium per well was transferred into a 384-well white (opaque) plate. 50 μl of QUANTI-Luc™ assay solution was then added to each well and the plate was immediately transferred to an ENVISION® plate reader to measure luminescence (Perkin-Elmer). Relative luminescence readings were converted to fold change of signal using untreated cells as controls. Data was fitted with non-linear regression analysis, using log (agonist) vs. response, variable slope, 4-parameter fit equation using GraphPad Prism. Data was expressed as fold change in signal vs. dose of STING agonist in nM with error bars indicating the Standard Deviation (SD) of the quadruplicates. There result was reported in Table 2 as EC50 (the midpoint of the curve, or concentration at which […] of the maximum effect was observed).

[7] = molecular target: T3, hSTING H232; assay: THP1-Dual KI-hSTING-H232 reporter assay (IRF pathway, secreted Lucia luciferase); type: cell-based; design: host or cells: THP1-Dual KI-hSTING-H232 (from THP1-Dual KO-STING); conditions: THP1-Dual KI-hSTING-H232 cells, 24 hours; read-out: Reporter assay EC50 (nM) THP-1-H232
Procedure: as §1, §2

SMILES	EC50 [1] [nM]	EC50 [2] [nM]	pKd [3]	pKd [4]	pKd [5]	EC50 [6] [nM]	EC50 [7] [nM]
CCn1nc(C)cc1C(=O)Nc1nc2cc(C(N)=O)cc(OC)c2n1C/C=C/Cn1c(N2CCn3nc(C)cc3C2=O)nc2cc(C(N)=O)cc(OCCCN3CC4(CNCCO4)C3)c21 [Compound 5, 1-[(E)-4-[5-Carbamoyl-2-(2-methyl-4-oxo-6,7-dihydropyrazolo[1,5-a]pyrazin-5-yl)-7-[3-(5-oxa-2,8-diazaspiro[3.5]nonan-2-yl)propoxy]benzimidazol-1-yl]but-2-enyl]-2-[(2-ethyl-5-methyl-pyrazole-3-carbonyl)amino]-7-methoxy-benzimidazole-5-carboxamide]	> 150	> 150	≤ 7.70	≤ 7.70	≤ 7.70	> 150	> 150
CCc1nc(C)oc1C(=O)Nc1nc2cc(C(N)=O)cnc2n1C/C=C/Cn1c(NC(=O)c2oc(C)nc2CC)nc2cc(C(N)=O)cc(OCCCO)c21 [Reference Compd B, reference compound]	≤ 50	> 150	≥ 7.70	≥ 7.70	≥ 7.70	≤ 50	≤ 50
CCc1nc(C)oc1C(=O)Nc1nc2cc(C(N)=O)cc(OCCCN3CC4(C3)CN(C(=O)[C@@H](N)CC(C)C)CCO4)c2n1C/C=C/Cn1c(NC(=O)c2cc(C)nn2CC)nc2cc(C(N)=O)cc(OC)c21 [Compound 17]	≤ 50	≤ 50	≥ 7.70	≥ 7.70	≥ 7.70	≤ 50	≤ 50
CCn1nc(C)cc1C(=O)Nc1nc2cc(C(N)=O)cnc2n1CCCCn1c(NC(=O)c2cc(C)nn2CC)nc2cc(C(N)=O)cc(OCCCN3CCC(c4nnc5n4CCNC5)CC3)c21 [Compound 22]	> 150	> 150	≥ 7.70	≥ 7.70	≥ 7.70	> 150	> 150
CCn1nc(C)cc1C(=O)Nc1nc2cc(C(N)=O)cc(OC)c2n1C/C=C/Cn1c(NC(=O)Cc2cc(C)nn2C)nc2cc(C(N)=O)cc(OCCCN3CC4(CNCCO4)C3)c21 [Compound 8]	> 150	> 150	≤ 7.70	≤ 7.70	≤ 7.70	> 150	> 150
CCn1nc(C)cc1C(=O)Nc1nc2cc(C(N)=O)cc(OC)c2n1C/C=C/Cn1c(NC(=O)c2cc(C)nn2CC)nc2cc(C(N)=O)cc(OCCCN3CC4(C3)CN(C(=O)CCCCCON)CCO4)c21 [LP-6-1]	≤ 50	≤ 50	≥ 7.70	≥ 7.70	≥ 7.70	≤ 50	≤ 50
CCn1nc(C)cc1C(=O)Nc1nc2cc(C(N)=O)cnc2n1C/C=C/Cn1c(NC(=O)c2cc(C)nn2CC)nc2cc(C(N)=O)cc(OCCCN3CCC(c4nnc5n4CCNC5)CC3)c21 [Compound 21]	50 to 150	> 150	≥ 7.70	≥ 7.70	≥ 7.70	> 150	50 to 150
CCn1nc(C)cc1C(=O)Nc1nc2cc(C(N)=O)cc3c2n1C/C=C/Cn1c(NC(=O)c2cc(C)nn2CC)nc2cc(C(N)=O)cc(c21)OCC1(CNC1)CO3 [Compound 24, (3E)-7,25-bis[(2-ethyl-5-methyl-pyrazole-3-carbonyl)amino]spiro[14,18-dioxa-1,6,8,24-tetrazapentacyclo[17.6.1.16,9.023,26.013,27]heptacosa-3,7,9,11,13 (27), 19 (26), 20,22,24-nonaene-16,3′-azetidine]-11,21-dicarboxamide; 2,2,2-trifluoroacetic acid]	≤ 50	> 150				> 150	50 to 150
CCn1nc(C)cc1C(=O)Nc1nc2cc(C(N)=O)ccc2n1C/C=C/Cn1c(NC(=O)c2cc(C)nn2CC)nc2cc(C(N)=O)cc(OCCCN3CC4(C3)CN(C(=O)[C@H](CC(C)C)NC(=O)CCCCCO/N=C(\C)c3ccc(C[C@H](N)C(=O)O)cc3)CCO4)c21 [LP-2-3]	50 to 150	> 150	≥ 7.70	≥ 7.70	≥ 7.70	> 150	50 to 150
CCn1nc(C)cc1C(=O)Nc1nc2cc(C(N)=O)cc(OC)c2n1C/C=C/Cn1c(NC(=O)c2cn(C)nc2C2CNC2)nc2cc(C(N)=O)cc(OCCCN3CC4(CCCCO4)C3)c21 [Compound 62]	> 150	> 150				> 150	> 150
CCc1nc(C)oc1C(=O)Nc1nc2cc(C(N)=O)cc(OCCCN3CC4(C3)CN(C(=O)[C@H](CC(C)C)NC)CCO4)c2n1C/C=C/Cn1c(NC(=O)c2cc(C)nn2CC)nc2cc(C(N)=O)cc(OC)c21 [Compound 19]	≤ 50	50 to 150				≤ 50	50 to 150
CCn1nc(C)cc1C(=O)Nc1nc2cc(C(N)=O)cc(OC)c2n1C/C=C/Cn1c(NC(=O)c2cc(C)nn2C)nc2cc(C(N)=O)cc(OCCCN3CC4(CNCCO4)C3)c21 [Compound 13]	≤ 50	≤ 50				≤ 50	≤ 50
CCn1nc(C)cc1C(=O)Nc1nc2cc(C(N)=O)cc(OC)c2n1C/C=C/Cn1c(NC(=O)c2ccnn2CC)nc2cc(C(N)=O)cc(OCCCN3CC4(CNCCO4)C3)c21 [Compound 14]	≤ 50	≤ 50				≤ 50	≤ 50
